The values below come from patent US11590116B2 (THERAVANCE BIOPHARMA R&D IP, LLC, priority 2019, dated 2023).

In test [1] the target is T1, recombinant human ALK5 (TGF-βR1) protein (Homo sapiens, UniProt P36897).
T1 construct: purchased Life Technologies PR9075A
T1 sequence (P36897 34-503): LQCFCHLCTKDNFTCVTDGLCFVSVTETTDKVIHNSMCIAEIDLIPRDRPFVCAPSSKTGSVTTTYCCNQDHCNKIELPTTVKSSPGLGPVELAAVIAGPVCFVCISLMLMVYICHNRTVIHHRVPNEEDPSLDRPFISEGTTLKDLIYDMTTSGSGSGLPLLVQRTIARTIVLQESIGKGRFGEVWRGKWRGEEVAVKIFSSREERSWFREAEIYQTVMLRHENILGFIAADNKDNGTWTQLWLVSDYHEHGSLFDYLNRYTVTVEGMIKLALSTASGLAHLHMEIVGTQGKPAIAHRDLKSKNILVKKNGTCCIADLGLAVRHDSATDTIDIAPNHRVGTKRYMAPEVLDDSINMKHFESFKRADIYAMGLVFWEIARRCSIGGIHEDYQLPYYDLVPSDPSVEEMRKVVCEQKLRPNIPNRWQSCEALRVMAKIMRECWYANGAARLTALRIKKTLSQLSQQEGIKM
Kind of test: Biochemical ALK5 (TGF-βR1) assay to measure pKi (LANCE Ultra ULight kinase assay). Particulars: apparent pKi from pIC50 by Cheng-Prusoff, read-out: ALK5 pKi (converted). Summed up: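 After a 60 min room-temperature preincubation of ALK5 with compound, phosphorylation proceeds 60 min at 37 °C on ATP addition (125 μM as 5× stock). Detection: Eu-labelled phospho-Thr1342 Topo IIα antibody in EDTA buffer, pH 7.0; emission 665 nm.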
A general note: In TR-FRET formats the signal depends on donor and acceptor labels being close together.

Test [2] has as its system TGF-β-stimulated SMAD3 phosphorylation in BEAS-2B cells. Kind of test: Cellular ALK5 potency assay, inhibition of TGF-β stimulated pSMAD3 formation in BEAS-2B cells. It counts as cell-based. Conditions: Homo sapiens; inhibition of TGF-β stimulated pSMAD3 formation, BEAS-2B cells; read-out: BEAS2B pIC50 (converted). Summed up:
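BEAS-2B human lung epithelial cells pre-treated 1 h at 37° C with compound in HBSS/25 mM HEPES/1% BSA, then stimulated 30 min with 10 ng/mL TGF-β (final). Lysates assayed for pSMAD3 by AlphaLISA; pIC50 from dose-dependent change versus stimulated untreated cells.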

On to `Cc1cccc(-c2n[nH]cc2-c2ccc3ncc(CNC(C(=O)OC4CCCC4)c4ccccc4)cc3n2)n1` (stereo not drawn) [Compound 684, cyclopentyl 2-[[6-[3-(6-methyl-2-pyridyl)-1H-pyrazol-4-yl]-1,5-naphthyridin-3-yl]methylamino]-2-phenyl-acetate], for which, in test [1], the Ki is 3.98 to 31.6 nM. Moreover, the IC50 in test [2] was 200 to 1260 nM.
The corresponding values for `Cc1cccc(-c2[nH]cnc2-c2ccc3ncc(-c4ccc(CN5CCNCC5)nc4)cc3c2)n1` [Compound 1026, 6-[5-(6-methyl-2-pyridyl)-1H-imidazol-4-yl]-3-[6-(piperazin-1-ylmethyl)-3-pyridyl]quinoline] are 0.0398 to 0.316 nM and 25.1 to 158 nM.
Taken in the same sequence, the figures for `Cc1cccc(-c2[nH]cnc2-c2ccc3ncc(-c4ccc(C(=O)OCCN5CCC[C@@H](N)C5)cn4)cc3c2)n1` [Compound 1174, 2-[(3R)-3-amino-1-piperidyl]ethyl 6-[6-[5-(6-methyl-2-pyridyl)-1H-imidazol-4-yl]-3-quinolyl]pyridine-3-carboxylate] were 0.0398 to 0.316 nM and 25.1 to 158 nM.
The corresponding values for `Cc1cccc(-c2[nH]cnc2-c2ccc3ncc(-c4ccc(C(=O)OCCN5CCN6CCCC6C5)cn4)cc3c2)n1` (stereo not drawn) [Compound 1212, 2-(3,4,6,7,8,8a-hexahydro-1H-pyrrolo[1,2-a]pyrazin-2-yl)ethyl 6-[6-[5-(6-methyl-2-pyridyl)-1H-imidazol-4-yl]-3-quinolyl]pyridine-3-carboxylate] are 0.0398 to 0.316 nM and 25.1 to 158 nM.
As for `Cc1cccc(-c2[nH]cnc2-c2ccc3ncc(-c4ccc(C(=O)OCCN5CCC[C@H](N)C5)cn4)cc3c2)n1` [Compound 1214, 2-[(3S)-3-amino-1-piperidyl]ethyl 6-[6-[5-(6-methyl-2-pyridyl)-1H-imidazol-4-yl]-3-quinolyl]pyridine-3-carboxylate], the Ki in test [1] is 0.0398 to 0.316 nM. For the same compound, the IC50 in test [2] was 25.1 to 158 nM.
The corresponding values for `Cc1cccc(-c2n[nH]cc2-c2ccc3ncc(-c4c(C)noc4C)cc3n2)n1` [Compound 243, 3,5-dimethyl-4-[6-[3-(6-methyl-2-pyridyl)-1H-pyrazol-4-yl]-1,5-naphthyridin-3-yl]isoxazole] are 0.398 to 3.16 nM and 25.1 to 158 nM.
Regarding `Cc1cccc(-c2[nH]cnc2-c2ccc3ncc(-c4cncc(C(=O)OC5CCNCC5)c4)cc3c2)n1` [Compound 136, 4-piperidyl 5-[6-[5-(6-methyl-2-pyridyl)-1H-imidazol-4-yl]-3-quinolyl]pyridine-3-carboxylate], the Ki in test [1] was 0.0398 to 0.316 nM. The IC50 in test [2] was 200 to 1260 nM.
The corresponding values for `Cc1cccc(-c2[nH]cnc2-c2ccc3ncc(-c4cccc(C(=O)O[C@@H]5CCNC5)n4)cc3c2)n1` [Compound 1126, [(3R)-pyrrolidin-3-yl] 6-[6-[5-(6-methyl-2-pyridyl)-1H-imidazol-4-yl]-3-quinolyl]pyridine-2-carboxylate] are less than 0.0316 nM and 25.1 to 158 nM.
Taken in the same sequence, the figures for `Cc1cccc(-c2[nH]cnc2-c2ccc3ncc(-c4cccc(C(=O)O[C@H]5CCNC5)n4)cc3c2)n1` [Compound 1089, [(3S)-pyrrolidin-3-yl] 6-[6-[5-(6-methyl-2-pyridyl)-1H-imidazol-4-yl]-3-quinolyl]pyridine-2-carboxylate] were 0.0398 to 0.316 nM and 25.1 to 158 nM.
Taken in the same sequence, the figures for `Cc1cccc(-c2n[nH]cc2-c2ccc3ncc(NC(=O)CCN4CCOCC4)cc3n2)n1` [Compound 286, N-[6-[3-(6-methyl-2-pyridyl)-1H-pyrazol-4-yl]-1,5-naphthyridin-3-yl]-3-morpholino-propanamide] were 0.0398 to 0.316 nM and 25.1 to 158 nM.
As to `Cc1cccc(-c2n[nH]cc2-c2ccc3nccc(C4COCC(C)N4)c3n2)n1` (stereo not drawn) [Compound 863, 3-methyl-5-[6-[3-(6-methyl-2-pyridyl)-1H-pyrazol-4-yl]-1,5-naphthyridin-4-yl]morpholine], the Ki in test [1] is 3.98 to 31.6 nM. The IC50 in test [2] is 200 to 1260 nM.
As to `Cc1cccc(-c2[nH]cnc2-c2ccc3ncc(-c4cccc(N5CC(N)C5)c4)cc3c2)n1` [Compound 397, 1-[3-[6-[5-(6-methyl-2-pyridyl)-1H-imidazol-4-yl]-3-quinolyl]phenyl]azetidin-3-amine], the Ki in test [1] is less than 0.0316 nM. The IC50 in test [2] was 25.1 to 158 nM.
As for `Cc1cccc(-c2n[nH]cc2-c2ccc3ncc(NCCN4CCN(C(C)C)CC4)cc3n2)n1` [Compound 478, N-[2-(4-isopropylpiperazin-1-yl)ethyl]-6-[3-(6-methyl-2-pyridyl)-1H-pyrazol-4-yl]-1,5-naphthyridin-3-amine], in test [1], the Ki is less than 0.0316 nM. The IC50 in test [2] was 25.1 to 158 nM.
The corresponding values for `COC(Cc1ccnc2ccc(-c3c[nH]nc3-c3cccc(C)n3)nc12)OC` [Compound 860, 8-(2,2-dimethoxyethyl)-2-[3-(6-methyl-2-pyridyl)-1H-pyrazol-4-yl]-1,5-naphthyridine] are 0.398 to 3.16 nM and 25.1 to 158 nM.
Taken in the same sequence, the figures for `Cc1cccc(-c2[nH]cnc2-c2ccc3ncc(-c4cc(C(=O)O[C@@H]5CCNC5)cs4)cc3c2)n1` [Compound 1105, [(3R)-pyrrolidin-3-yl] 5-[6-[5-(6-methyl-2-pyridyl)-1H-imidazol-4-yl]-3-quinolyl]thiophene-3-carboxylate] were less than 0.0316 nM and 25.1 to 158 nM.
Taken in the same sequence, the figures for `Cc1cccc(-c2[nH]cnc2-c2ccc3ncc(-c4ccc(C(=O)OCCN5CCNCC5)s4)cc3c2)n1` [Compound 1088, 2-piperazin-1-ylethyl 5-[6-[5-(6-methyl-2-pyridyl)-1H-imidazol-4-yl]-3-quinolyl]thiophene-2-carboxylate] were 0.0398 to 0.316 nM and 25.1 to 158 nM.
Turning to `Cc1nc(-c2nc3ccccn3c2-c2ccc3ncc(Br)cc3n2)ccc1F` [Compound 453, 7-bromo-2-[2-(5-fluoro-6-methyl-2-pyridyl)imidazo[1,2-a]pyridin-3-yl]-1,5-naphthyridine], the Ki in test [1] is 0.398 to 3.16 nM. The IC50 in test [2] is 1580 to 10000 nM.
Taken in the same sequence, the figures for `Cc1cccc(-c2n[nH]cc2-c2ccc3ncc(N4CCN(C(C)C)C(C)(C)C4)cc3n2)n1` [Compound 20, 7-(4-isopropyl-3,3-dimethyl-piperazin-1-yl)-2-[3-(6-methyl-2-pyridyl)-1H-pyrazol-4-yl]-1,5-naphthyridine] were 3.98 to 31.6 nM and 200 to 1260 nM.
The corresponding values for `CNC1CCN(c2cnc3ccc(-c4c[nH]nc4-c4cccc(C(C)C)n4)nc3c2)CC1` [Compound 364, 1-[6-[3-(6-isopropyl-2-pyridyl)-1H-pyrazol-4-yl]-1,5-naphthyridin-3-yl]-N-methyl-piperidin-4-amine] are 0.0398 to 0.316 nM and 25.1 to 158 nM.
Taken in the same sequence, the figures for `Cc1cccc(-c2n[nH]cc2-c2ccc3ncc(-c4ccc(C)nc4C)cc3n2)n1` [Compound 436, 7-(2,6-dimethyl-3-pyridyl)-2-[3-(6-methyl-2-pyridyl)-1H-pyrazol-4-yl]-1,5-naphthyridine] were 0.0398 to 0.316 nM and 25.1 to 158 nM.
Regarding `Cc1cccc(-c2n[nH]cc2-c2ccc3ncc(-c4c(C)nn(C)c4C)cc3n2)n1` [Compound 426, 2-[3-(6-methyl-2-pyridyl)-1H-pyrazol-4-yl]-7-(1,3,5-trimethylpyrazol-4-yl)-1,5-naphthyridine], the Ki in test [1] is 0.0398 to 0.316 nM. In test [2], the IC50 was 25.1 to 158 nM.
